Patent US9707231B2, “Compositions and methods for reduction of amyloid-beta load” (Modgene, LLC, priority 2011, dated 2017)
Where “and” joins values, the source holds several entries; their conditions need not be identical. Equal entries are not always repeated. Structures can show the parent of a compound that is named as a salt. Where two headings read alike, the source gives them in different places.

How the values were obtained:
Aβ [1] = assay: Aβ in media of SYSY-APP cells, Covance ELISA; type: cell-based
Experimental: • 1. Thaw SYSY-APP cells, add to warmed high glucose DMEM with 10% serum, pen-strep in t-75 flask. In 2 days, split culture into 4 flasks. Collect cells from 3 and freeze in liquid N2. Use remaining culture for experiment. • 2. Seed 24-well plate with cells in same media. Grow to confluence. • 3. […] After 16 hr incubation, isolate media, add 10 ul protease inhibitor and spin out cells and debris (3000×g); • 4.

[2] = cited from earlier work
[3] = cited from earlier work; remark: listed apart in the source
[4] = cited from earlier work; remark: listed apart in the source
Abl kinase = target: T1, Abl kinase (Homo sapiens, UniProt P00519); assay: Abl kinase activity, 32P-ATP / Abltide peptide, scintillation counting; type: biochemical; details: for Abl kinase activity, CPM (single assay): duplicates 1 and 2
T1 construct: purchased Millipore, Temecula, Calif
Experimental: The following were combined in order:
10 μL 2.5× kinase assay buffer
2.5 μL Abl kinase (Millipore, Temecula, Calif.)
1 μL DMSO vehicle or inhibitor in DMSO on ice
2.5 μL Abltide synthetic peptide substrate, biotin-tagged (Millipore, Temecula, Calif.) • Incubate at 30° C. for 10 min.; • Stop by the addition of 12.5 μL 7.5M guanidine HCL to each reaction, vortex. • Spot 12.5 μL on SAM2 biotin capture membrane (Promega Corp., Madison, Wis.) • Wash the membrane (4×2M NaCl; 4×2M NaCl, 1% H3PO4, 2×H2O, at room temp.) • Kinase activity was determined by scintillation counting. • The Scintillation count: final drug concentration shown • Each assay was performed in duplicate.

Aβ [5] = system: Aβ
Experimental: Wild-type C57B1/6 and DBA/2J male mice (age 8-12 weeks) were administered drug or vehicle twice daily for 7 days by intraperitoneal injection.
Animals were sacrificed 12 hr after the last injection. Individual mice were anesthetized with isoflurane and blood samples (100-300 ul) taken by cardiac puncture with heparinized syringes. Samples were placed on ice for 30 minutes in the presence of EDTA and then centrifuged for 20 minutes at 16,000×g at 4° C. The plasma fraction was removed and stored at −80° C. Brains were removed and frozen rapidly on dry ice and stored at −80° C.
Detection of mouse Aβ1-40 in blood and brain samples was performed by using a commercially available immunoassay kit (Biosource mouse Aβ1-40, Catalog No. KMB3481, Invitrogen, Carlsbad, Calif.) or by Western blot. Mouse brain samples were prepared by homogenizing brain tissue in a polytron in the presence of 5M guanidine HCl and 50 mM Tris HCl, pH 8.0 as described in the assay protocol.
Blood samples were diluted 1:5 in standard diluent buffer. Samples were assayed in duplicate and OD450 measured on a Tecan infinite 2000 plate reader.
For Western blots, samples were subjected to P AGE analysis, transferred to PVDF membranes and the Aβ hexamers were visualized using a monoclonal antibody 4G8 directed against mouse Aβ (1:1,000; Covance) using the manufacturer's recommended protocol. Blots were scanned by densitometry, and then reprobed with an antibody to histone H3 (1:50,000; Abcam) as a loading and transfer control. Data are depicted as normalized optical density.

[6] = 20 mg/kg IP twice daily 7 days, young and old B mice

T1 sequence (P00519 whole entry): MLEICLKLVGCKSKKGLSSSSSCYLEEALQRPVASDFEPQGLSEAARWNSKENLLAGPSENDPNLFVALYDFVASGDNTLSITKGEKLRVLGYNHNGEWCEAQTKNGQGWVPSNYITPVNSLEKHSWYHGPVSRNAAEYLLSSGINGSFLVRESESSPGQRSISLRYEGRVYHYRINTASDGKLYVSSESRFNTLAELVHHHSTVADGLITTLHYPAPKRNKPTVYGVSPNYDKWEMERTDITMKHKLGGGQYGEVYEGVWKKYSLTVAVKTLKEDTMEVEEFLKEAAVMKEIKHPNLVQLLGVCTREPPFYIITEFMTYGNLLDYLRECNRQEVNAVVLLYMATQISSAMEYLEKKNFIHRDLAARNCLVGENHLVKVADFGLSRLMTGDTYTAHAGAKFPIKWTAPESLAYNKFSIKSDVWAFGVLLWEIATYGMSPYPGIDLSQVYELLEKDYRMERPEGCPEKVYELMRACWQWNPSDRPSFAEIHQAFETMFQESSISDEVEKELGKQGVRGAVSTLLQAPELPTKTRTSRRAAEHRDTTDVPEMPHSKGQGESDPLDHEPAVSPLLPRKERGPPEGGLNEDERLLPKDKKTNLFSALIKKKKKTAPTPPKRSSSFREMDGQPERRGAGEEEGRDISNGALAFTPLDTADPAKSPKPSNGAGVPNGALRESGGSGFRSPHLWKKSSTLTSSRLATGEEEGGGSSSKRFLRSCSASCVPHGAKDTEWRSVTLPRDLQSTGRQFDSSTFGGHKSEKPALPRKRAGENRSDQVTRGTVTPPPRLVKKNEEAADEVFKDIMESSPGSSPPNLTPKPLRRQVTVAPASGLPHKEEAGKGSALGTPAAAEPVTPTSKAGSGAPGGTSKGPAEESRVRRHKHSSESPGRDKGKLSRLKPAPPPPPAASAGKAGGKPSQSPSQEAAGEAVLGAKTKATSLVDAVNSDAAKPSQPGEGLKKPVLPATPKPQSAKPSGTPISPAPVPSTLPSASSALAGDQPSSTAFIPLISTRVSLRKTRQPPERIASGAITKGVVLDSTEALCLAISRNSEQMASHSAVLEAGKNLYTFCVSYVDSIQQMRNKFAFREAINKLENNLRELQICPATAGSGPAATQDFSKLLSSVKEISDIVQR

Cc1cc(NC(=O)c2ccc(CN3CCN(C)CC3)cc2)ccc1Nc1nccc(-c2cccnc2)n1 [Imatinib para-diaminomethylbenzene 3 HCl]
effect on Aβ concentration (in words) (Aβ [1]; 3-100 μM, 150 μL media supernatant, FIG. 7): stronger inhibition of Aβ than does imatinib

Cc1ccc(NC(=O)c2ccc(CN3CCN(C)CC3)cc2)cc1Nc1nccc(-c2cccnc2)n1 [imatinib, reference compound]
Cmax (time) ([2]; oral administration in pediatric patients): 2 to 4 h

COc1ccc(-c2nc3ncccc3[nH]2)c(OC)c1.Cl [ARL-57]
log P ([3]; pH 8): 2.59
CNS side effects (in words) ([4]; in vivo): spectacular bright color vision

Cc1ccc(NC(=O)c2ccc(CN3CCNCC3)cc2)cc1Nc1nccc(-c2cccnc2)n1 [N-desmethyl imatinib]
Abl kinase activity, CPM (single assay) (Abl kinase; 10 μM final drug concentration, DMSO vehicle 2837/2956): 540 CPM and 649 CPM
Abl kinase activity, AVERAGE of the two assays (Abl kinase; 10 μM, DMSO vehicle average 2897): 595 CPM
Abl kinase activity, AVERAGE of the two assays (Abl kinase; 30 μM): 149 CPM
Abl kinase activity, CPM (single assay) (Abl kinase; 30 μM final drug concentration): 149 CPM
Abl kinase activity, AVERAGE of the two assays (Abl kinase; 100 μM): 107 CPM
Abl kinase inhibition (in words) (Abl kinase; concentrations 10 to 100 μM, FIG. 8): inhibits Abl kinase less than does imatinib
reduction of Aβ compared with imatinib (in words) (Aβ [1]; 3-100 uM, 16 hr, 100 μL aliquot, FIG. 6): more effective reduction of Aβ than does imatinib
plasma AUC of the metabolite as share of the AUC for imatinib ([2]; humans): about 15%
elimination half-life ([2]; oral administration in healthy volunteers): ~40 h

Cc1ccc(NC(=O)c2ccc(CN3CCN(C)CC3)cc2)cc1Nc1nccc(-c2cccnc2)n1 [STI-571]
reduction of brain levels of Aβ (Aβ [5]; [6]): approximately 50%
reduction of plasma levels of Aβ (Aβ [5]; [6]): approximately 50%
reduction of circulating (plasma) Aβ (Aβ [5]; highest dose (100 mg/kg) IP twice daily 7 days, young D2 mice): approximately 75%

COc1cc([S+](C)[O-])ccc1-c1nc2ncccc2[nH]1 (stereo not drawn) [ARL115, sulmazole]
log P, calcd. ([3]; calculated value): 1.82
CNS side effects (in words) ([4]; humans): lack the CNS side effects
